Measurements: paper PMC8894010, “Synthesis, Carbonic Anhydrase II/IX/XII Inhibition, DFT, and Molecular Docking Studies of Hydrazide-Sulfonamide Hybrids of 4-Methylsalicyl- and Acyl-Substituted Hydrazide” (BioMed Research International, 2022)

Key:
[1] = molecular target: T1, CA IX (Homo sapiens, UniProt Q16790); assay: Carbonic anhydrase inhibition assay (p-nitrophenyl acetate hydrolysis, colorimetric, 348 nm); assay type: biochemical; details: mean of three independent experiments ± SEM; pH 7.6; read-out: CAIX Ki (μM ± SEM)
T1 construct: His-tag; made in house
Method: All three isozymes, CA II, CA IX, and CA XII, were produced using the same protocol done for each. Transformation was the first step to be done in which the plasmids and the off-spark plasmids of CA II, CA IX, and CA XII were transformed into competent E. coli bacteria using the heat shock method, cells were grown in agar, then a colony was selected for further growth in LB broth, cells were collected by centrifugation according to the methods described in [25], and the plasmid was extracted according to the kit protocol using SanPrep column plasmid miniprep kit obtained from Sangon Biotech. […] Six hours later, the media were aspirated, and the fresh prepared (+10% FBS and 1% pen/strep) media were added to the cells. On the next day, the cells were inspected for their viability, and new media were used for the selection process which were DMEM, FBS, and hygromycin B using a final concentration of 200 μg/mL. The cells were grown in the selective media, and when they reached 70 to 80% confluency, the offs-park plasmid transfected cells were checked under a fluorescent microscope to insure the production of the protein; then, the cells transfected with the His-tagged plasmid were collected for making the cell lysate following the method described by by centrifugation of the cells at 2000 rpm for 5 minutes, washed with PBS, and again centrifuged; the pellet was then suspended in the cell lysis buffer, incubated in ice for 15 minutes, and centrifuged again at 10000 g at 4°C for 15 minutes, and here, the pellet was discarded and the supernatant was collected for purification using Ni-NTA Sepharose column according to the manufacturer's protocol. And the eluting solution was quantified using the protein quantification technique Biuret assay and Bradford reagent for protein quantification.
Carbonic anhydrase inhibition activity was carried out using an already developed method with slight modification. The principle of the current method is centered on that “CA hydrolyses the p-nitrophenyl acetate to p-nitrophenol” which is determined by spectrophotometrically. Reaction mixture contained 60 μL of 50 mM Tris-sulfate buffer (pH 7.6 containing 0.1 mM ZnCl2) and 10 μL (0.5 mM) test compound in 1% DMSO. […] Preparation of p-nitrophenyl acetate was done by taking 6 mM stock using <5% acetonitrile in buffer and was used fresh. Each well was filled with 20 μL solution to attain […] concentration. The total reaction volume was made to 100 μL.

[2] = molecular target: CA XII (Homo sapiens, UniProt O43570); assay: as above; details: for CAXII % inhibition: given instead of Ki where inhibition <50%, test compound 10 μL (0.5 mM), b52 says 1.0 mM
Sequence of CA XII (O43570 25-354): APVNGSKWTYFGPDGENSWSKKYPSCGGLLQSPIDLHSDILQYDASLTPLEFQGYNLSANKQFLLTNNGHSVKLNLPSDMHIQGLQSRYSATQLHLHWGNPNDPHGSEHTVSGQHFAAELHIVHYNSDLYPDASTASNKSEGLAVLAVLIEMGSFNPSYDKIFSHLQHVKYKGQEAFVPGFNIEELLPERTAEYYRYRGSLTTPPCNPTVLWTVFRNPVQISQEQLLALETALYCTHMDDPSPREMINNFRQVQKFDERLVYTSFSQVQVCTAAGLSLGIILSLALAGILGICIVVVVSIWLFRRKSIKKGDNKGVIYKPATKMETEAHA
Method: (§1) Carbonic anhydrase inhibition activity was carried out using an already developed method [19] with slight modification. The principle of the current method is centered on that “CA hydrolyses the p-nitrophenyl acetate to p-nitrophenol” which is determined by spectrophotometrically. Reaction mixture contained 60 μL of 50 mM Tris-sulfate buffer (pH 7.6 containing 0.1 mM ZnCl2) and 10 μL (0.5 mM) test compound in 1% DMSO. […] Preparation of p-nitrophenyl acetate was done by taking 6 mM stock using <5% acetonitrile in buffer and was used fresh. Each well was filled with 20 μL solution to attain 0.6 mM concentration. The total reaction volume was made to 100 μL.

[3] = molecular target: CA II (Homo sapiens, UniProt P00918); assay: as above
Method: as §1

| melting point [°C] | Ki [1] [µM] | CAXII % inhibition [2] [%] | Ki [3] [nM] | Ki [2] [nM] | SMILES |
| --- | --- | --- | --- | --- | --- |
| 220 to 222 | 0.58 ± 0.04 | 44.4 | 680 ± 20 |  | COc1cc(C)ccc1C(=O)NNS(=O)(=O)c1ccc([N+](=O)[O-])cc1 [Compound 19, N′-(2-Methoxy-4-methylbenzoyl)-4-nitrobenzenesulfonohydrazide] |
| 168 to 169 | 0.56 ± 0.05 |  | 660 ± 40 | 990 ± 100 | COc1cc(C)ccc1C(=O)NNS(=O)(=O)c1ccc(Br)cc1 [Compound 20, 4-Bromo-N′-(2-methoxy-4-methylbenzoyl)benzenesulfonohydrazide] |
| 159 to 162 | 0.19 ± 0.02 |  | 610 ± 10 | 1220 ± 10 | COc1ccc(S(=O)(=O)NNC(=O)c2ccc(C)cc2OC)cc1 [Compound 21, 4-Methoxy-N′-(2-methoxy-4-methylbenzoyl)benzenesulfono hydrazide] |
| 161 to 163 | 1.04 ± 0.38 | 42.89 | 680 ± 10 |  | COc1cc(C)ccc1C(=O)NNS(=O)(=O)c1ccc(C)cc1 [Compound 22, N′-(2-Methoxy-4-methylbenzoyl)-4-methylbenzenesulfonohydrazide] |
| 186 to 187 | 0.19 ± 0.03 |  | 940 ± 20 | 750 ± 70 | COc1cc(C)ccc1C(=O)NNS(=O)(=O)c1ccc2ccccc2c1 [Compound 23, N′-(2-Methoxy-4-methylbenzoyl)naphthalene-2-sulfonohydrazide] |
| 211 to 213 | 0.54 ± 0.06 |  | 340 ± 10 | 520 ± 40 | Cc1ccc(C(=O)NNS(=O)(=O)c2ccc([N+](=O)[O-])cc2)c(O)c1 [Compound 24, N′-(2-Hydroxy-4-methylbenzoyl)-4-nitrobenzenesulfonohydrazide] |
|  | 0.33 ± 0.03 |  | 910 ± 20 | 350 ± 40 | Cc1ccc(C(=O)NNS(=O)(=O)c2ccc(Br)cc2)c(O)c1 [Compound 25, 4-Bromo-N′-(2-hydroxy-4-methylbenzoyl)benzenesulfonohydrazide] |
| 168 to 169 | 0.91 ± 0.09 |  | 960 ± 90 | 580 ± 40 | COc1ccc(S(=O)(=O)NNC(=O)c2ccc(C)cc2O)cc1 [Compound 26, N′-(2-Hydroxy-4-methylbenzoyl)-4-methoxybenzenesulfono hydrazide] |
| 183 to 185 | 0.51 ± 0.04 |  | 1110 ± 40 | 430 ± 80 | Cc1ccc(S(=O)(=O)NNC(=O)c2ccc(C)cc2O)cc1 [Compound 27, N′-(2-Hydroxy-4-methylbenzoyl)-4-methylbenzenesulfonohydrazide] |
| 205 to 206 | 0.55 ± 0.01 |  | 460 ± 10 | 1020 ± 80 | Cc1ccc(CC(=O)NNS(=O)(=O)c2ccc([N+](=O)[O-])cc2)cc1 [Compound 28, 4-Nitro-N′-(2-(p-tolyl)acetyl)benzenesulfonohydrazide] |
| 156 to 157 | 0.33 ± 0.02 |  | 730 ± 20 | 550 ± 10 | Cc1ccc(CC(=O)NNS(=O)(=O)c2ccc(Br)cc2)cc1 [Compound 29, 4-Bromo-N′-(2-(p-tolyl)acetyl)benzenesulfonohydrazide] |
| 133 to 134 | 0.33 ± 0.03 |  | 740 ± 40 | 130 ± 10 | COc1ccc(S(=O)(=O)NNC(=O)Cc2ccc(C)cc2)cc1 [Compound 30, 4-Methoxy-N′-(2-(p-tolyl)acetyl)benzenesulfonohydrazide] |
| 143 to 144 | 0.29 ± 0.02 |  | 670 ± 10 | 400 ± 90 | Cc1ccc(CC(=O)NNS(=O)(=O)c2ccc(C)cc2)cc1 [Compound 31, 4-Methyl-N′-(2-(p-tolyl)acetyl)benzenesulfonohydrazide] |
| 158 to 159 | 0.32 ± 0.01 | 49.25 | 670 ± 60 |  | COc1cccc(CC(=O)NNS(=O)(=O)c2ccc([N+](=O)[O-])cc2)c1 [Compound 32, N′-(2-(3-Methoxyphenyl)acetyl)-4-nitrobenzenesulfonohydrazide] |
| 153 to 154 | 0.39 ± 0.03 |  | 680 ± 50 | 170 ± 10 | COc1cccc(CC(=O)NNS(=O)(=O)c2ccc(Br)cc2)c1 [Compound 33, 4-Bromo-N′-(2-(3-methoxyphenyl)acetyl)benzenesulfonohydrazide] |
| 146 to 147 | 0.65 ± 0.03 |  | 1810 ± 30 | 220 ± 60 | COc1ccc(S(=O)(=O)NNC(=O)Cc2cccc(OC)c2)cc1 [Compound 34, 4-Methoxy-N′-(2-(3-methoxyphenyl)acetyl)benzenesulfonohydrazide] |
| 143 to 144 | 1.18 ± 0.04 |  | 3200 ± 140 | 340 ± 10 | COc1cccc(CC(=O)NNS(=O)(=O)c2ccc(C)cc2)c1 [Compound 35, N′-(2-(3-Methoxyphenyl)acetyl)-4-methylbenzenesulfonohydrazide] |
| 139 to 141 | 0.6 ± 0.01 | 48.88 | 920 ± 100 |  | COc1cccc(CC(=O)NNS(=O)(=O)c2ccc3ccccc3c2)c1 [Compound 36, N′-(2-(3-Methoxyphenyl)acetyl)naphthalene-2-sulfonohydrazide] |
